Experimental data reported in patent US9097673B2, “Processes and kits for determining multi-drug resistance of cells” (ENZO LIFE SCIENCES, INC., priority 2010, dated 2015).
Several values for one entry are separate records, joined by “and”; a condition that tells them apart may be missing. Equal values may be shown once. Read-outs that look alike come from different tables or passages of the source.

What was measured:
CHO K1 cell line = assay: Dye uptake flow cytometry MDR assay; type: cell-based, hamster;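 also: flow cytometry of dye-loaded cells, Kolmogorov-Smirnov D value (0 to 1.0) comparing fluorescence with versus without inhibitor, made negative when the uninhibited control was brighter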
U-2 OS cells = assay: Multiplexed MDR detection by flow cytometry (dye uptake, with PI); type: cell-based, human; details: for F8 + PI, MAF: Fluo-8 AM + PI; for F8, MAF: Fluo-8 AM probe alone; for R4 + PI compens, MAF / R4 + PI, MAF: Rhod-4 AM + PI; for R4 + PI compens, MAF: compensated; for R4 + PI, MAF: uncompensated; for R4, MAF: Rhod-4 AM probe alone;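 as to all read-outs here: MAF computed as 100 × (MFI with inhibitor − MFI without) / MFI with inhibitor, after 5 min inhibitor pre-incubation then 30 min dye loading at 37 °C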
[1] = test system: U-2 OS cells expressing GFP; assay: as above; type: cell-based, human; details: U-2 OS GFP; for R4 + PI compens, MAF / R4 + PI, MAF: Rhod-4 AM + PI; for R4 + PI compens, MAF: compensated; for R4 + PI, MAF: uncompensated; for R4, MAF: Rhod-4 AM probe alone
A549 cell line = assay: Dye uptake flow cytometry MDR assay; type: cell-based, human
HeLa cell line = assay: Dye uptake flow cytometry MDR assay; type: cell-based, human
[2] = CHO K1, Fluo-8 AM + propidium iodide, uncompensated data
[3] = CHO K1, Fluo-8 AM probe alone, uncompensated data
[4] = CHO K1, Rhod-4 AM + propidium iodide, compensated data
[5] = CHO K1, Rhod-4 AM + propidium iodide, uncompensated data
[6] = CHO K1, Rhod-4 AM probe alone, uncompensated data
[7] = CHO K1, dye uptake, average of three independent experiments (Table 10)
[8] = A549, dye uptake, average of three independent experiments (Table 10)
[9] = CHO K1, dual probes Rhod-4 AM (FL2) + CMFDA (FL1)
[10] = CHO K1, dye uptake, average of three representative experiments (Table 6)
[11] = CHO K1, triple probes CMFDA (FL1) + Rhod-4 AM (FL2) + Pheophorbide A (FL3)
[12] = A549, dye uptake, average of three representative experiments (Table 6)
[13] = HeLa, dye uptake, average of three representative experiments (Table 6)
[14] = CHO K1, dual probes Rhod-4 AM (FL2) + DiOC2(3) (FL1)
[15] = CHO K1, triple probes DiOC2(3) (FL1) + Rhod-4 AM (FL2) + Pheophorbide A (FL3)
[16] = CHO K1, dual probes Fluo-8 AM (FL1) + Pheophorbide A (FL3)
[17] = CHO K1, dual probes Rhod-4 AM (FL2) + Pheophorbide A (FL3)

## CO[C@@H]1[C@@H](OC(N)=O)[C@@H](O)[C@H](Oc2ccc3c(O)c(NC(=O)c4ccc(O)c(CC=C(C)C)c4)c(=O)oc3c2C)OC1(C)C [Novobiocin, novobiocin]
CHO K1 cell line; [2]
  F8 + PI, D-values: 0.61
CHO K1 cell line; [3]
  Fluo-8 ™, D: 0.54
CHO K1 cell line; [4]
  R4 + PI, D-values: 0.66
CHO K1 cell line; [5]
  R4 + PI, D-values: 0.7
CHO K1 cell line; [6]
  Rhod4 ™ (D-values): .64
U-2 OS cells
  F8 + PI, MAF: 12.3
  F8, MAF: 17.9
  R4 + PI compens, MAF: 15.1
  R4 + PI, MAF: 10.7
  R4, MAF: 18.7
[1]
  R4 + PI compens, MAF: 2.8
  R4 + PI, MAF: 27.9
  R4, MAF: 17.9

## O=C1c2c(O)ccc(O)c2C(=O)c2c(NCCNCCO)ccc(NCCNCCO)c21 [Mitoxantrone, mitoxantrone]
CHO K1 cell line; [7]
  D-value, Cyclosporine A: 0.34
  D-value, FTC: 0.21
  D-value, MK-571: 0.18
  D-value, Novobiocin: 0.22
  D-value, Verapamil: 0.42
A549 cell line; [8]
  D-value, Cyclosporine A: 0.27
  D-value, FTC: 0.28
  D-value, MK-571: 0.37
  D-value, Novobiocin: 0.28
  D-value, Verapamil: 0.12

## COc1ccc(CCN(C)CCCC(C#N)(c2ccc(OC)c(OC)c2)C(C)C)cc1OC (stereo not shown) [Verapamil, verapamil]
CHO K1 cell line
  F8 + PI, D-values: 0.94
  Fluo-8 ™, D: 0.92
  R4 + PI, D-values: 0.96 and 0.95
  Rhod4 ™ (D-values): 0.94
U-2 OS cells
  F8 + PI, MAF: 33.0
  F8, MAF: 63.4
  R4 + PI compens, MAF: 54.1
  R4 + PI, MAF: 35.8
  R4, MAF: 42.5
[1]
  R4 + PI compens, MAF: 38.0
  R4 + PI, MAF: 41.3
  R4, MAF: 30.4

## COc1cccc2c1C(=O)c1c(O)c3c(c(O)c1C2=O)C[C@@](O)(C(=O)CO)C[C@@H]3O[C@H]1C[C@H](N)[C@H](O)[C@H](C)O1 [Doxorubicin, doxorubicin]
CHO K1 cell line; [7]
  D-value, Cyclosporine A: 0.42
  D-value, FTC: 0.22
  D-value, MK-571: 0.35
  D-value, Novobiocin: 0.32
  D-value, Verapamil: 0.27
A549 cell line; [8]
  D-value, Cyclosporine A: 0.14
  D-value, FTC: 0.18
  D-value, MK-571: 0.24
  D-value, Novobiocin: 0.28
  D-value, Verapamil: 0.06

## COc1ccc2c3c([nH]c2c1)[C@H](C=C(C)C)N1C(=O)[C@@H]2CCCN2C(=O)[C@@H]1C3 [FTC, fumitremorgin C]
U-2 OS cells
  F8 + PI, MAF: −6.3
  F8, MAF: 5.0
  R4 + PI compens, MAF: 12.6
  R4 + PI, MAF: −9.3
  R4, MAF: 9.9
[1]
  R4 + PI compens, MAF: 6.2
  R4 + PI, MAF: 25.7
  R4, MAF: 15.0

## CN(C)C(=O)CCSC(SCCC(=O)O)c1cccc(/C=C/c2ccc3ccc(Cl)cc3n2)c1 (stereo not shown) [MK-571]
CHO K1 cell line; [2]
  F8 + PI, D-values: 0.92
CHO K1 cell line; [3]
  Fluo-8 ™, D: 0.89
CHO K1 cell line; [4]
  R4 + PI, D-values: 0.94
CHO K1 cell line; [5]
  R4 + PI, D-values: 0.95
CHO K1 cell line; [6]
  Rhod4 ™ (D-values): .94
U-2 OS cells
  F8 + PI, MAF: 52.9
  F8, MAF: 65.4
  R4 + PI compens, MAF: 54.5
  R4 + PI, MAF: 49.7
  R4, MAF: 62.8
[1]
  R4 + PI compens, MAF: 43.3
  R4 + PI, MAF: 51.9
  R4, MAF: 49.6

## CC(=O)Oc1ccc2c(c1)Oc1cc(OC(C)=O)ccc1C21OC(=O)c2cc(CCl)ccc21 [CMFDA, chloromethylfluorescein diacetate]
CHO K1 cell line; [9]
  D-values Post Inhibitor Treatment (compared to uninhibited cells), CsA: 0.49
  D-values Post Inhibitor Treatment (compared to uninhibited cells), FTC: 0.06
  D-values Post Inhibitor Treatment (compared to uninhibited cells), MK-571: 0.91
  D-values Post Inhibitor Treatment (compared to uninhibited cells), Verapamil: 0.1
CHO K1 cell line; [10]
  D-value, Fumitremorgan C: 0.09
  D-value, Probenecid: 0.7
  D-value, Verapamil: 0.19
CHO K1 cell line; [11]
  D-values Post Inhibitor Treatment (compared to uninhibited cells), CsA: 0.47
  D-values Post Inhibitor Treatment (compared to uninhibited cells), FTC: 0.14
  D-values Post Inhibitor Treatment (compared to uninhibited cells), MK-571: 0.89
  D-values Post Inhibitor Treatment (compared to uninhibited cells), Verapamil: 0.10
A549 cell line; [12]
  D-value, Fumitremorgan C: 0.21
  D-value, Probenecid: 0.29
  D-value, Verapamil: 0.04
HeLa cell line; [13]
  D-value, Fumitremorgan C: 0.12
  D-value, Probenecid: 0.03
  D-value, Verapamil: 0

## CCN1C(=CC=Cc2oc3ccccc3[n+]2CC)Oc2ccccc21.[I-] [DiOC2(3), 3,3′-diethyloxacarbocyanine iodide]
CHO K1 cell line
  D-value, Fumitremorgan C: 0
CHO K1 cell line; [14]
  D-values Post Inhibitor Treatment (compared to uninhibited cells), CsA: 0.94
  D-values Post Inhibitor Treatment (compared to uninhibited cells), FTC: 0.16
  D-values Post Inhibitor Treatment (compared to uninhibited cells), MK-571: 0.13
  D-values Post Inhibitor Treatment (compared to uninhibited cells), Verapamil: 0.96
CHO K1 cell line; [10]
  D-value, Probenecid: 0.01
  D-value, Verapamil: 0.96
CHO K1 cell line; [15]
  D-values Post Inhibitor Treatment (compared to uninhibited cells), CsA: 0.98
  D-values Post Inhibitor Treatment (compared to uninhibited cells), FTC: 0.11
  D-values Post Inhibitor Treatment (compared to uninhibited cells), MK-571: 0.13
  D-values Post Inhibitor Treatment (compared to uninhibited cells), Verapamil: 0.98
A549 cell line
  D-value, Fumitremorgan C: 0.03
A549 cell line; [12]
  D-value, Probenecid: 0
  D-value, Verapamil: 0.07
HeLa cell line
  D-value, Fumitremorgan C: 0.07
HeLa cell line; [13]
  D-value, Probenecid: 0.06
  D-value, Verapamil: 0

## C=Cc1c(C)c2cc3nc(c4c5[nH]c(cc6nc(cc1[nH]2)C(C)=C6CC)c(C)c5C(=O)[C@@H]4C(=O)OC)[C@@H](CCC(=O)O)[C@@H]3C [Pheophorbide A, pheophorbide A]
CHO K1 cell line; [16]
  D-values Post Inhibitor Treatment (compared to uninhibited cells), CsA: 0.25
  D-values Post Inhibitor Treatment (compared to uninhibited cells), FTC: 0.33
  D-values Post Inhibitor Treatment (compared to uninhibited cells), MK-571: 0.15
  D-values Post Inhibitor Treatment (compared to uninhibited cells), Verapamil: 0.14
CHO K1 cell line; [17]
  D-values Post Inhibitor Treatment (compared to uninhibited cells), CsA: 0.25
  D-values Post Inhibitor Treatment (compared to uninhibited cells), FTC: 0.34
  D-values Post Inhibitor Treatment (compared to uninhibited cells), MK-571: 0.14
  D-values Post Inhibitor Treatment (compared to uninhibited cells), Verapamil: 0.11
CHO K1 cell line; [10]
  D-value, Fumitremorgan C: 0.25
  D-value, Probenecid: 0.03
  D-value, Verapamil: 0.02
CHO K1 cell line; [11]
  D-values Post Inhibitor Treatment (compared to uninhibited cells), CsA: 0.20
  D-values Post Inhibitor Treatment (compared to uninhibited cells), FTC: 0.27
  D-values Post Inhibitor Treatment (compared to uninhibited cells), MK-571: 0.09
  D-values Post Inhibitor Treatment (compared to uninhibited cells), Verapamil: 0.18
CHO K1 cell line; [15]
  D-values Post Inhibitor Treatment (compared to uninhibited cells), CsA: 0.4
  D-values Post Inhibitor Treatment (compared to uninhibited cells), FTC: 0.41
  D-values Post Inhibitor Treatment (compared to uninhibited cells), MK-571: 0.13
  D-values Post Inhibitor Treatment (compared to uninhibited cells), Verapamil: 0.17
A549 cell line; [12]
  D-value, Fumitremorgan C: 0.35
  D-value, Probenecid: 0.16
  D-value, Verapamil: 0.16
HeLa cell line; [13]
  D-value, Fumitremorgan C: 0
  D-value, Probenecid: 0
  D-value, Verapamil: 0

## CCCN(CCC)S(=O)(=O)c1ccc(C(=O)O)cc1 [Probenecid, probenecid]
U-2 OS cells
  F8 + PI, MAF: 23.1
  F8, MAF: 57.5
  R4 + PI compens, MAF: 42.4
  R4 + PI, MAF: 24.0
  R4, MAF: 41.2
[1]
  R4 + PI compens, MAF: 38.5
  R4 + PI, MAF: 47.7
  R4, MAF: 34.0
